Read-outs that look alike come from different tables or passages of the source.
Assays:
Assay type in all cases: cell-based, human
[1] = system: A549 lung cancer cells; test: MTS cell viability assay, A549; details: for EC50: read-out: EC50 (effective concentration that resulted in 50% cell viability)
Method: (§1) Human breast (HCC38, MCF-7, MDA-MB-231, SK-BR-3, T-47D, and ZR-75-1), lung (A549 and H520), and prostate (DU145 and PC-3) cancer cell lines were obtained from American Culture Type Collection (ATCC). The HCC38, MCF-7, MDA-MB-231, SK-BR-3, T-47D, ZR-75-1, and A549 cells were grown in MEM supplemented with 10% FBS, 25 mM HEPES buffer (pH 7.4), penicillin (100 U/mL), and streptomycin (100 μg/mL). The H520, DU145, and PC-3 cell lines were grown in RPMI-1640 supplemented with 10% FBS, 25 mM HEPES buffer (pH 7.4), penicillin (100 U/mL), and streptomycin (100 μg/mL). All cell lines were maintained at 37° C. in a humidified, 5% CO2 atmosphere.
(§2) Cells were cultured at a density of 2-3.5×10^3 cells per well in flat bottomed 96-well plates in 100 μL of complete growth medium and incubated for 2 days to reach ˜50% confluence. The cells were then treated with solvent or the appropriate drugs (CDDP stock was dissolved in 0.15 M NaCl, carboplatin stock was dissolved in 5% glucose, synthesized Pt(IV) complexes were dissolved in DMSO) for 1 hour, washed three times with 100 μL PBS, and incubated in 100 μL of fresh medium. After 2 days, the medium was replaced with 120 μL of medium containing CellTiter 96® Aqueous One Solution Reagent (MTS reagent) (Promega, Madison, Wis.). The cells were incubated at 37° C. for 4 hours and the cell viability was determined by measuring the absorbance at 490 nm using a Tecan Infinite M1000 microplate reader. The 48 h treatment was done in a similar manner, except the cells were not washed after treatment and the MTS reagent was immediately added. Viability of treated groups was calculated as a percent of control and graphed with GraphPad Prism.
(§3) The anti-proliferative activities of Pt(IV) complexes were determined in two lung (A549 and H520), two prostate (DU145 and PC-3), and six breast (HCC38, MCF-7, MDA-MB-231, SK-BR-3, T-47D, and ZR-75-1) cancer cell lines. The cells were treated with increasing concentrations of cisplatin (CDDP), carboplatin, or the Pt(IV) complexes for 1 or 48 hours, and the viability was measured using an MTS colorimetric cell proliferation assay. Graphs of the results are shown for DU145 (FIG. 8A), PC-3 (FIG. 8B), SK-BR-3 (FIG. 8C), ZR-75-1 (FIG. 8D), A549 (FIG. 8E), and MCF-7 (FIG. 8F).

[2] = system: H520 lung cancer cells; test: MTS cell viability assay, H520; details: read-out: EC50 (effective concentration that resulted in 50% cell viability)
Method: as §1, §2, §3

[3] = system: DU145 prostate cancer cells; details: for EC50: read-out: EC50 (effective concentration that resulted in 50% cell viability)
Method: as §1, §2, §3
(§4) The anti-proliferative activities of certain Pt(II) complexes were determined in DU145, PC-3, and SK-BR-3 cells. The cells were treated with increasing concentrations of cisplatin (CDDP) or the Pt(II) complexes for 1 or 48 hours, and the viability was measured using an MTS colorimetric cell proliferation assay.

[4] = system: PC-3 prostate cancer cells; test: MTS cell viability assay, PC-3; details: read-out: EC50 (effective concentration that resulted in 50% cell viability)
Method: as §1, §2, §3, §4

[5] = system: HCC38 breast cancer cells; test: MTS cell viability assay, HCC38; details: read-out: EC50 (effective concentration that resulted in 50% cell viability)
Method: as §1, §2, §3

[6] = system: MCF-7 breast cancer cells; test: MTS cell viability assay, MCF-7; details: for EC50: read-out: EC50 (effective concentration that resulted in 50% cell viability)
Method: as §1, §2, §3

[7] = system: MDA-MB-231 breast cancer cells; test: MTS cell viability assay, MDA-MB-231; details: read-out: EC50 (effective concentration that resulted in 50% cell viability)
Method: as §1, §2, §3

[8] = system: SK-BR-3 breast cancer cells; test: MTS cell viability assay, SK-BR-3; details: read-out: EC50 (effective concentration that resulted in 50% cell viability)
Method: as §1, §2, §3, §4

[9] = system: T-47D breast cancer cells; test: MTS cell viability assay, T-47D
Method: as §1, §2, §3

[10] = system: ZR-75-1 breast cancer cells; test: MTS cell viability assay, ZR-75-1; details: read-out: EC50 (effective concentration that resulted in 50% cell viability)
Method: as §1, §2, §3

[11] = MDA-MB-231, 1 h treatment, Table 2
[12] = MDA-MB-231, 48 h treatment, Table 4
[13] = SK-BR-3, 1 h treatment, Table 2
[14] = SK-BR-3, 48 h treatment, Table 4
[15] = 1 h treatment, Table 2, read-out: EC50 (effective concentration that resulted in 50% cell viability)
[16] = 48 h treatment, Table 4, read-out: EC50 (effective concentration that resulted in 50% cell viability)
[17] = ZR-75-1, 1 h treatment, Table 2
[18] = ZR-75-1, 48 h treatment, Table 4
[19] = MDA-MB-231, 1 h treatment, Table 3
[20] = SK-BR-3, 1 h treatment, Table 3
[21] = 1 h treatment, Table 3, read-out: EC50 (effective concentration that resulted in 50% cell viability)
[22] = 48 h, Table 5, read-out: EC50 (effective concentration that resulted in 50% cell viability)
[23] = ZR-75-1, 1 h treatment, Table 3

CCCCCOc1ccnc(-c2cc(OCCCCC)ccn2)c1.[Cl][Pt][Cl] [Pt(II)-5C]
EC50 ([1]; A549, 1 h treatment, Table 2): 18 ± 1 µM
EC50 ([1]; A549, 48 h treatment, Table 4): 16.5 ± 0.5 µM
EC50 ([2]; H520, 1 h treatment, Table 2): 23 ± 5 µM
EC50 ([2]; H520, 48 h treatment, Table 4): 17 ± 3 µM
EC50 ([3]; DU145, 1 h treatment, Table 2): 8 ± 2 µM
EC50 ([3]; DU145, 48 h treatment, Table 4): 6 ± 0.7 µM
EC50 ([4]; PC-3, 1 h treatment, Table 2): 7 ± 1 µM
EC50 ([4]; PC-3, 48 h treatment, Table 4): 7.3 ± 0.7 µM
EC50 ([5]; HCC38, 1 h treatment, Table 2): 13 ± 5 µM
EC50 ([5]; HCC38, 48 h treatment, Table 4): 10 ± 2 µM
EC50 ([6]; MCF-7, 1 h treatment, Table 2): 21 ± 5 µM
EC50 ([6]; MCF-7, 48 h treatment, Table 4): 15 ± 7 µM
EC50 [7, 11]: 4 ± 2 µM
EC50 [7, 12]: 4.1 ± 0.2 µM
EC50 [8, 13]: 2.8 ± 0.8 µM
EC50 [8, 14]: 2.4 ± 0.4 µM
EC50 [9, 15]: 9 ± 3 µM
EC50 [9, 16]: 3 ± 1 µM
EC50 [10, 17]: 8 ± 3 µM
EC50 [10, 18]: 6.6 ± 0.7 µM

COc1ccnc(-c2cc(OC)ccn2)c1.[Cl][Pt][Cl] [Pt(II)-1C]
EC50 ([1]; A549, 1 h treatment, Table 2): > 100 µM
EC50 ([1]; A549, 48 h treatment, Table 4): > 100 µM
EC50 ([2]; H520, 1 h treatment, Table 2): > 100 µM
EC50 ([2]; H520, 48 h treatment, Table 4): 30 ± 2 µM
EC50 ([3]; DU145, 1 h treatment, Table 2): 40 ± 10 µM
EC50 ([3]; DU145, 48 h treatment, Table 4): 24 ± 2 µM
EC50 ([4]; PC-3, 1 h treatment, Table 2): > 100 µM
EC50 ([4]; PC-3, 48 h treatment, Table 4): 40 ± 7 µM
EC50 ([5]; HCC38, 1 h treatment, Table 2): 80 ± 20 µM
EC50 ([5]; HCC38, 48 h treatment, Table 4): 57 ± 2 µM
EC50 ([6]; MCF-7, 1 h treatment, Table 2): > 100 µM
EC50 ([6]; MCF-7, 48 h treatment, Table 4): > 100 µM
EC50 [7, 11]: > 100 µM
EC50 [7, 12]: > 100 µM
EC50 [8, 13]: 19 ± 5 µM
EC50 [8, 14]: 23 ± 2 µM
EC50 [9, 15]: 20 ± 1 µM
EC50 [9, 16]: 21 ± 1 µM
EC50 [10, 17]: 67 ± 27 µM
EC50 [10, 18]: 26 ± 1 µM

[Pt(IV)Cl2(OAc)2(4,4′-dimethoxy-2,2′-bipyridine)] [Pt(IV)-1C]
EC50 ([1]; A549, 1 h treatment, Table 3): > 100 µM
EC50 ([1]; A549, 48 h, Table 5): > 100 µM
effect on cell viability (in words) ([1]; A549, 48 hour treatment (FIG. 8E)): had no effect
EC50 ([2]; H520, 1 h treatment, Table 3): > 100 µM
EC50 ([2]; H520, 48 h, Table 5): > 100 µM
effect on cell viability (in words) ([3]; DU145, 1 hour treatment (FIG. 8A, top), up to 1 mM carboplatin, 100 μM Pt(IV)-1C, 50 μM Pt(IV)-2C): did not have any effects
EC50 ([3]; DU145, 1 h treatment, Table 3): > 100 µM
EC50 ([3]; DU145, 48 h, Table 5): 80 ± 20 µM
effect on cell viability (in words) ([3]; DU145, 48 hours treatment (FIG. 8A, bottom)): more effective than carboplatin
EC50 ([4]; PC-3, 1 h treatment, Table 3): > 100 µM
EC50 ([4]; PC-3, 48 h, Table 5): > 100 µM
EC50 ([5]; HCC38, 1 h treatment, Table 3): > 100 µM
EC50 ([5]; HCC38, 48 h, Table 5): > 100 µM
EC50 ([6]; MCF-7, 1 h treatment, Table 3): > 100 µM
EC50 ([6]; MCF-7, 48 h, Table 5): > 100 µM
effect on cell viability (in words) ([6]; MCF-7, 48 hour treatment (FIG. 8F)): had no effect
EC50 [7, 19]: > 100 µM
EC50 ([7]; MDA-MB-231, 48 h, Table 5): > 100 µM
EC50 [8, 20]: > 100 µM
EC50 ([8]; SK-BR-3, 48 h, Table 5): 80 ± 20 µM
EC50 [9, 21]: > 100 µM
EC50 [9, 22]: 32 ± 0.5 µM
EC50 [10, 23]: > 100 µM
EC50 ([10]; ZR-75-1, 48 h, Table 5): > 100 µM

[Pt(IV)Cl2(OAc)2(4,4′-dihexyloxy-2,2′-bipyridine)] [Pt(IV)-6C]
EC50 ([1]; A549, 1 h treatment, Table 3): 2.5 ± 0.2 µM
EC50 ([1]; A549, 48 h, Table 5): 2.2 ± 0.1 µM
EC50 ([2]; H520, 1 h treatment, Table 3): 2.1 ± 0.2 µM
EC50 ([2]; H520, 48 h, Table 5): 1 ± 0.4 µM
EC50 ([3]; DU145, 1 h treatment, Table 3): 1.3 ± 0.2 µM
EC50 ([3]; DU145, 48 h, Table 5): 0.5 ± 0.3 µM
EC50 ([4]; PC-3, 1 h treatment, Table 3): 2 ± 0.3 µM
EC50 ([4]; PC-3, 48 h, Table 5): 0.33 ± 0.04 µM
EC50 ([5]; HCC38, 1 h treatment, Table 3): 2.3 ± 0.2 µM
EC50 ([5]; HCC38, 48 h, Table 5): 1.8 ± 0.5 µM
EC50 ([6]; MCF-7, 1 h treatment, Table 3): 2.4 ± 0.1 µM
EC50 ([6]; MCF-7, 48 h, Table 5): 1.6 ± 0.2 µM
EC50 [7, 19]: 1.1 ± 0.2 µM
EC50 ([7]; MDA-MB-231, 48 h, Table 5): 0.31 ± 0.04 µM
EC50 [8, 20]: 0.36 ± 0.02 µM
EC50 ([8]; SK-BR-3, 48 h, Table 5): 0.21 ± 0.03 µM
EC50 [9, 21]: 2.1 ± 0.4 µM
EC50 [9, 22]: 0.24 ± 0.01 µM
EC50 [10, 23]: 1.1 ± 0.4 µM
EC50 ([10]; ZR-75-1, 48 h, Table 5): 0.55 ± 0.04 µM

From patent publication US10316050B2, “PT (IV) complexes containing 4,4′-disubstituted-2,2′-bipyridyl and their use in cancer therapy” (THE BOARD OF REGENTS OF THE NEVADA SYSTEM OF HIGHER …, priority 2014, dated 2019)
